Columns and labels:
[1] = target: T1, M1 type muscarinic cholinergic receptor (Rattus norvegicus, UniProt P08482); experiment: Radioligand binding to M1 type muscarinic cholinergic receptor ([^3 H]-pirenzepine); settings: for IC50: rat brain (except cerebellum and brain stem) crude synaptic membrane, [^3 H]-PZ 1 nM, 60 minutes, 25 °C
T1 construct: crude synaptic membrane specimen prepared from all brains (except cerebellum and brain stem) of rat; from tissue; host or cells: rat brain without cerebellum and brain stem, crude synaptic membranes
T1 sequence (P08482 1-460): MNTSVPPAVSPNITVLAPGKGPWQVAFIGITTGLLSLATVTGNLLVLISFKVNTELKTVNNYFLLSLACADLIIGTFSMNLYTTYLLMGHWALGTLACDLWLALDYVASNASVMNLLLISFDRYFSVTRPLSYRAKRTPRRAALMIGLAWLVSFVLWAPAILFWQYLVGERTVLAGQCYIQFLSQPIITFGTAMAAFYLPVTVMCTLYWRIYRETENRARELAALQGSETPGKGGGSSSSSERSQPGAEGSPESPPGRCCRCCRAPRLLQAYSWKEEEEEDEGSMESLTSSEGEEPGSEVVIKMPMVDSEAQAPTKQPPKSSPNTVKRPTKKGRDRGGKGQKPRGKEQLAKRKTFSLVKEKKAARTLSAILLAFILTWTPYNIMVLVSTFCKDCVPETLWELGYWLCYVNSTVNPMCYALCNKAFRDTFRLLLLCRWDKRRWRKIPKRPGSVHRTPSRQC
Procedure: 1) Radioligand binding experiment to M1 type muscarinic cholinergic receptor
Method: To a crude synaptic membrane specimen prepared from all brains (except cerebellum and brain stem) of rat, [^3 H]-pirenzepine ([^3 H]-PZ, final oncentration: 1 nM) and testing compound were added and the mixture was incubated for 60 minutes at 25 ° C. After stopped the reaction by high-speed suction filtration, the radioactivity on filter was measured with liquid scintillation counter. The specific binding level of [^3 H]-pirenzepine was determined by subtracting the nonspecific binding level in the presence of atropine (1 μM) from total binding level. Putting the [^3 H]-pirenzepine binding in the absence of testing compound on 100, the concentration of compound to decrease by 50 % (IC50 value) was made an index of the binding activity of compound to M1 muscarinic receptor (refer to: J. A. D. M. Toner et al, Life Science, 1987, 40, 1981-1987).

[2] = target: T2, M2 type muscarinic cholinergic receptor (Rattus norvegicus, UniProt P10980); experiment: Radioligand binding to M2 type muscarinic cholinergic receptor ([^3 H]-quinuclidyl benzoate); settings: rat brain stem crude synaptic membrane, [^3 H]-QNB 0.1 nM
T2 construct: crude synaptic membrane specimen was prepared from the brain stem (medulla oblongata-pons) of rat; from tissue; host or cells: rat brain stem (medulla oblongata-pons), crude synaptic membranes
T2 sequence (P10980 1-466): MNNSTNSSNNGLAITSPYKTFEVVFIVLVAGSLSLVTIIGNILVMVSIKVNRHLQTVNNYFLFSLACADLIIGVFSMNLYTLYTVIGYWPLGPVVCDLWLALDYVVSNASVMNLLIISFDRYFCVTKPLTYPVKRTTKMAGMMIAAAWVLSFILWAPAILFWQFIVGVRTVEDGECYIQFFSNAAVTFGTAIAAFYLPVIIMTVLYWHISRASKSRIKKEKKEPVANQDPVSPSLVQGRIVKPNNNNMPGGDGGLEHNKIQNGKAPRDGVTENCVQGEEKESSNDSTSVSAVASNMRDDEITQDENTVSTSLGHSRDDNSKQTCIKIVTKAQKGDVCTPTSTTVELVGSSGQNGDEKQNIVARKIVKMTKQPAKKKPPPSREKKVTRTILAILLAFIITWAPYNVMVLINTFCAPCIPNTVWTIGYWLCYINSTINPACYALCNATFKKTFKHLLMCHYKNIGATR

[3] = test system: pirenzepine-induced amnesia; experiment: Pirenzepine-induced amnesia, step-through type passive avoidance; format: in vivo, Std:ddY strain male mice; settings: oral; for Reaction latency Mean ± S.E.: 30 or 60 minutes before acquisition trial, pirenzepine-treated mice; for Improvement rate: pirenzepine-induced amnesia
Description: Testing on the pirenzepine-induced amnesia
For the experiment animals, Std:ddY strain male mice with body weight of 24 to 34 g (age in week: 5-6) (Nippon SLC) were used. For the device, a step-through type passive avoidance apparatus (made by Ohara Medical Co., Ltd.) consisting of two […] and dark rooms was used. In the acquisition trial, mouse was placed in the light room and, 10 seconds later, the partitive guillotine door was opened. As soon as the mouse moved into the dark room, the guillotine door was closed and electric shock of 41 to 45 V was given for 1 second through the metal grid bars of the floor. The retention trial was conducted 24 hours later since then. […] The induction of amnesia was performed by fixing a mouse at prone position without anesthetization at 20 minutes before learning acquisition trial and injecting pirenzepine (10 μg/2 μl/mouse bilaterally into cerebral ventricles using a microsyringe. Moreover, a group not to administered with pirenzepine before acquisition trial (non-amnesia comparison group) was also provided. The mice were made to be 12 to 21 animals per group and the testing compound was administered orally at 30 or 60 minutes before acquisition trial. The improvement rate was calculate according to following equation and the results are shown in Table 5 (refer to: M. P. Callfield et at, J. Pharm. Pharmacol. 1983, 35, 131-132). [formula]
The extension of the reaction latency with compound therefore means the improved amnesia.

Std:ddY strain male mice = experiment: In vivo toxicity test, oral administration; settings: for common symptoms and death / Convulsion (animals affected) / Death (animals) / dose at which convulsion was observed / dose at which death was observed: 3 days
Procedure: For the experiment animals, 4 animals per group of Std:ddY strain male mice with body weightOf 26 to 30 g (age in week: 5) (Nippon SLC) were used. The testing compound was suspended into 5 % solution of arabic gum and administered orally. The common symptoms and death caused with compound were recorded for 3 days after administration.

[4] = test system: M1 and M2 muscarinic receptors; experiment: Selectivity to M1 receptor (ratio of IC50 values from the M1 and M2 binding experiments); design: species or system rat
Procedure: 3) Selectivity to M1 receptor
This was determined from the ratio of IC50 values of compound obtained from the binding experiments of M1 and M2 muscarinic receptors. [formula]

Row | SMILES | IC50 [1] | IC50 [2] | Reaction latency Mean ± S.E. ([3]; 3 mg/kg) | Improvement rate ([3]; 3 mg/kg) | Reaction latency Mean ± S.E. ([3]; 10 mg/kg) | Improvement rate ([3]; 10 mg/kg) | common symptoms (in words) (Std:ddY strain male mice) | common symptoms and death (Std:ddY strain male mice; 300 mg/kg) | dose at which convulsion was observed (Std:ddY strain male mice) | dose at which death was observed (Std:ddY strain male mice) | Reaction latency Mean ± S.E. ([3]; 30 mg/kg) | Improvement rate ([3]; 30 mg/kg) | also measured
1 | O=C1N(c2ccc(F)cc2)CCN1C1CCCN(Cc2ccccc2)C1 (racemic) [Referential example 8, (±)-1-(4-fluorophenyl)-3-[3-(1-phenylmethyl)piperidyl]-2-imidazolidinone] | 80 nM | 1090 nM | 55.1 ± 20.0 s | -20.7% | 153.7 ± 27.6 s | 33.2% | convulsive actions were seen | None | 600 mg/kg | 1200 mg/kg | – | – | Convulsion (animals affected) (Std:ddY strain male mice; 600 mg/kg): 3/4; Death (animals) (Std:ddY strain male mice; 1200 mg/kg): 4/4
2 | O=C1N(c2ccc(F)cc2)CCN1[C@@H]1CCCN(Cc2ccccc2)C1 [Example 1, (R)-1-(4-florophenyl)-3-[3-(1-phenylmethyl)piperidyl]-2-imidazolidinone] | 30 nM | 500 nM | 91.5 ± 21.4 s | 34.3% | 133.0 ± 29.3 s | 77.9% | – | None | – | – | 166.9 ± 40.2 s | 113.6% | affinity to the central M1 muscarinic receptor (in words) [1]: patent affinity to the central M1 muscarinic receptor; in vitro muscarine (M1) activity / affinity relative to S form (Referential example 9) ([1]; compared with S isomer): about 120 times; in vitro muscarine (M1) activity / affinity relative to racemic form (Referential example 8) ([1]; compared with racemic form): about 3 times; selectivity to M1 receptor (in words) ([4]; M1 versus M2 receptor): far higher selectivity to M1 receptor than to M2 receptor; IC50 (M2)/IC50 (M1) ([4]; ratio of IC50 values, selectivity to M1 receptor): 16.7; improvement effect on the amnesia / disturbance of learning (in words) ([3]; listed as R form): could be recognized only for R form with significant difference; improvement effect on the amnesia / disturbance of learning (in words) ([3]; listed as R isomer): very excellent improvement effect on the amnesia; common symptoms and death (Std:ddY strain male mice; 600 mg/kg): None; common symptoms and death (Std:ddY strain male mice; 1200 mg/kg): None; common symptoms and death (Std:ddY strain male mice; 1200 mg/kg, listed as R form): problems did not arise at any rate; common symptoms and death (Std:ddY strain male mice; 1200 mg/kg, listed as compound of the invention): such symptom was not caused even at 1200 mg/kg
3 | O=C1N(c2ccc(F)cc2)CCN1[C@H]1CCCN(Cc2ccccc2)C1 [Referential example 9, (S)-1-(4-fluorophenyl)-3-[3-(1-phenylmethyl)piperidyl]-2-imidazolidinone] | 3700 nM | > 10000 nM | 63.3 ± 32.1 s | -23.5% | 61.5 ± 26.5 s | -25.0% | convulsive actions were seen | – | ≥ 300 mg/kg | ≥ 300 mg/kg | 113.2 ± 36.2 s | 18.1% | Convulsion (animals affected) (Std:ddY strain male mice; 300 mg/kg): 2/4; Death (animals) (Std:ddY strain male mice; 300 mg/kg): 1/4; Death (animals) (Std:ddY strain male mice; 600 mg/kg): 4/4

From patent publication US5726188A, “Optically active imidazolidinone derivatives and processes for preparing them” (Kyorin Pharmaceutical Co., Ltd., priority 1993, dated 1998)
